Assay results as given in patent US20020032183A1, “Use of (di-substituted-phenyl)-pyrimidinyl-imidazole derivatives as JNK-inhibitors” (priority 2000, published 2002).
Values joined by “and” are separate entries in the source; they are usually repeats but may differ in a detail not shown here. Equal values may be shown once. Read-outs that look alike come from different tables or passages of the source. Marks after values point to notes of the source that are not given here.

Test system: mesencephalic dopaminergic neurons
Type: cell-based, rat
Settings: for TH-immunoreactive cell survival, Mean: 48 hours
Source text: Effects of Jnk Inhibition on Dopaminergic Neuronal Survival, In Vitro Following Treatment with the Neurotoxin MPP^+.
This protocol produces a yield of dopaminergic neurons of around 0.5-1%; this is equivalent to roughly 1000-1500 dopaminergic cells in the well. 14 day gestation Sprague-Dawley rats were killed by stunning and exsanguination. Embryos were removed and decapitated, and the ventral mesencephalon dissected from the brain. The tissue was dissociated by trypsin (0.25% in Hank's BSS) digestion for 20 minutes. The trypsin was neutralized by addition of an excess of serum containing medium and the cells centrifuged at 1000 rpm for 10 minutes. The cell pellet was resuspended in DMEM/10% FCS, and a single cell suspension prepared by mechanical dissociation and passage through a 70 μm cell strainer. Trypan blue excluding cells were counted in a haemocytometer, and cells were plated into poly-D-lysine treated 8-well chamber slides at a density of 2×10^5 cells/well in Dulbecco's MEM supplemented with 10% FCS. Cultures were incubated for 24 hours at 37° C./5% CO2, then the medium was replaced with DMEM supplemented with SATO (final concentration; 4.3 mg/ml BSA, 0.77 μg/ml progesterone, 20 μg/ml putrescine, 0.49 μg/ml L-thyroxine, 0.048 μg/ml selenium and 0.42 μg/ml tri-iodo-thyronine).
Cultures were incubated for 5 days, then removed from the incubator and treated with compounds. Jnk inhibitors were added at concentrations ranging from 1 nM to 1 μM to 4 independent wells per concentration. 15 minutes following addition of Jnk inhibitors, MPP^+ was added directly to the wells to give a final concentration in the well of 10 μM. 4 wells were treated with MPP^+ 10 μM alone, and 4 left as untreated controls. zVAD-fmk 300 μM and Example 2 500 nM were used as positive controls. Once compounds and MPP^+ had been added, cultures were returned to the incubator at 37° C./5% CO2 for a further 48 hours prior to fixation and immunostaining.
To determine the numbers of surviving dopaminergic neurons, immunocytochemistry was carried out using a rabbit polyclonal antibody raised against TH. Non-specific binding sites were blocked using 10% normal goat serum in PBS, then primary antibody was added at 4° C. overnight. The next day, the cells were washed and treated with biotin conjugated goat anti-rabbit IgG for one hour, followed by peroxidase conjugated avidin biotin complex, both made up from the Vectastain® Elite ABC kit (Vector Laboratories, Burlingame, Calif.) according to the manufacturer's instructions. Staining was visualized using Vector™ SG (Vector Laboratories) insoluble peroxidase substrate according to the manufacturer's instructions. Following staining, the gaskets were removed from the chamber slides, and the slides mounted using aqueous mountant. Slides were blinded by another investigator before quantification of TH-immunoreactive cell survival. To determine TH-immunoreactive cell survival, cells were visualized using transmitted light on a Zeiss Axiovert inverted microscope using a 10X objective. Counts were made of all the TH-immunoreactive cells present in each well.
Data analysis was performed using a one way analysis of variance, followed by Dunnett's t-test. In each case the data refer to one representative experiment, with four independent replicates for each data point. […] Data shown are normalized to percentage of control response; all statistical analyses, however, were carried out on the cell counts.

CCCn1c(C2CCN(C)CC2)nc(-c2ccc(Cl)c(Cl)c2)c1-c1ccnc(NC2CC2)n1 [Example 2, Cyclopropyl-{4-[5-(3,4-dichlorophenyl)-2-[(1-methyl)-piperidin]-4-yl-3-propyl-3H-imidazol-4-yl]-pyrimidin-2-yl}amine]
TH-immunoreactive cell survival, Mean (1 nM + MPP+ 10 μM): 54.72 % of untreated control
TH-immunoreactive cell survival, Mean (10 nM + MPP+ 10 μM): 60.77* % of untreated control
TH-immunoreactive cell survival, Mean (100 nM + MPP+ 10 μM): 59.95* % of untreated control
TH-immunoreactive cell survival, Mean (500 nM + MPP+ 10 μM): 72 % of untreated control and 72.41** % of untreated control
TH-immunoreactive cell survival, Mean (1 μM + MPP+ 10 μM): 71.14** % of untreated control
TH-immunoreactive cell survival, Mean (10 μM + MPP+ 10 μM): 32.08 % of untreated control
Non-specific toxicity (10 μM treatment): Non-specific toxicity is observed
Concentrations giving significant increases in survival (MPP+ 10 μM, p<0.05): ≥ 10 nM
